According to patent US10793892B2, “Method for detecting the presence of expanded spectrum β-lactamase-producing bacteria in a sample” (INSERM (INSTITUT NATIONAL DE LA SANTE ET DE LA RECHERCHE …, priority 2011, dated 2020):

What was measured:
E. coli = assay: ESBL NDP test using cultured strains; format: biochemical, Escherichia coli; design: key: (+) and (−) referred to color change being, red to yellow or unchanged, respectively; (+) and (−) referred to color change being, red to yellow or unchanged, respectively
Description: Strains were isolated on Mueller-Hinton agar (Biorad, Marnes-la-Coquette, France) and incubated at 37° C. for 16 h to 24 h before performing the NDP rapid ESBL test as follows. One calibrated inoculated loop (10 μl) of the tested strain was resuspended in 150 μl of 20 mM Tris-HCl lysis buffer previously distributed in Microbead tubes (Ultraclean Microbial DNA isolation kit Bead Tubes, MO BIO Laboratories, Carlsbad, USA). Mechanical lysis of bacteria was performed by strong agitation of Microbead tubes using a vortex adapter (MO BIO Laboratories) for 30 min at room temperature. This bacterial suspension was centrifuged at 10,000×g at room temperature for 5 min. Thirty μl of the supernatant was mixed in a well of a 96-well tray with 100 μl of a 1 ml solution made of 3 mg of purified cefotaxime sodium salt (Sigma-Aldrich, Saint-Quentin-Fallavier, France) in a pH 7.8 phenol red solution. […]. The phenol red solution was made by taking 2 ml of a concentrated pH 8 phenol solution (made from a mixture of phenol red 0.5% in distilled water) to which 16.6 ml of distilled water was added. The pH value was then adjusted to a 7.8 value by adding drops of a 1 N NaOH solution. Mixture of the phenol red solution and the enzymatic suspension being tested was incubated at 37° C. for 30 min. Similarly, culture extracts were analyzed in wells containing cefotaxime and tazobactam (4 mg/ml). Other concentrations of tazobactam and other ß-lactamase inhibitors were tested giving less clear results (data not shown). […] This definition of test positivity will be applied throughout the study.

K. oxytoca = assay: Susceptibility testing, MIC by Etest; format: cell-based, Klebsiella oxytoca; settings: K. oxytoca Wild-type penicillinase, n=1
Description: Susceptibility testing was performed by determining MIC values using the Etest® (AB bioMérieux; Solna, Sweden) on Mueller-Hinton agar plates at 37° C. and results were recorded according to US guidelines (CLSI), as updated in 2012 (2). The breakpoints for cefotaxime are susceptible (S)≤1 and resistant (R)≥4 μg/ml, and for ceftazidime S≤4 and R≥16 μg/ml.

E. aerogenes = assay: ESBL NDP test using spiked blood cultures; format: biochemical, Enterobacter aerogenes; design: key: (+) and (−) referred to color change being, red to yellow or unchanged, respectively; (+) and (−) referred to color change being, red to yellow or unchanged, respectively
Description: (§1) Strains were isolated on Mueller-Hinton agar (Biorad, Marnes-la-Coquette, France) and incubated at 37° C. for 16 h to 24 h before performing the NDP rapid ESBL test as follows. One calibrated inoculated loop (10 μl) of the tested strain was resuspended in 150 μl of 20 mM Tris-HCl lysis buffer previously distributed in Microbead tubes (Ultraclean Microbial DNA isolation kit Bead Tubes, MO BIO Laboratories, Carlsbad, USA). Mechanical lysis of bacteria was performed by strong agitation of Microbead tubes using a vortex adapter (MO BIO Laboratories) for 30 min at room temperature. This bacterial suspension was centrifuged at 10,000×g at room temperature for 5 min. Thirty μl of the supernatant was mixed in a well of a 96-well tray with 100 μl of a 1 ml solution made of 3 mg of purified cefotaxime sodium salt (Sigma-Aldrich, Saint-Quentin-Fallavier, France) in a pH 7.8 phenol red solution. […]. […] Similarly, culture extracts were analyzed in wells containing cefotaxime and tazobactam (4 mg/ml). […]
(§2) Rapid detection of ESBL producers was attempted from spiked blood cultures which positivity was assessed using the BactAlert blood culture system (bioMérieux). […] Spiked blood cultures were made of 1×10^3 CFU of each strain and incubated 24 to 48 h before a positivity of the blood culture was detected by the BactAlert system. […]

S. marcescens = assay: ESBL NDP test using spiked blood cultures; format: biochemical, Serratia marcescens; design: key: (+) and (−) referred to color change being, red to yellow or unchanged, respectively; (+) and (−) referred to color change being, red to yellow or unchanged, respectively
Description: as §1, §2

CO/N=C(\C(=O)N[C@@H]1C(=O)N2C(C(=O)O)=C(COC(C)=O)CS[C@H]12)c1csc(N)n1 [CTX, cefotaxime]
ESBL NDP Test from: Colonies (E. coli; E. coli 09.11, TEM-52): +
ESBL NDP Test from: Colonies (E. coli; E. coli 09.123, TEM-133): −
ESBL NDP Test from: Colonies (E. coli; E. coli 09.124, TEM-52): +
ESBL NDP Test from: Colonies (E. coli; E. coli 09.129, SHV-12): +
ESBL NDP Test from: Colonies (E. coli; E. coli 09.173, SHV-12): +
ESBL NDP Test from: Colonies (E. coli; E. coli 09.187, SHV-2a): +
ESBL NDP Test from: Colonies (E. coli; E. coli 09.193, SHV-12): +
ESBL NDP Test from: Colonies (E. coli; E. coli 09.207, SHV-2a): +
ESBL NDP Test from: Colonies (E. coli; E. coli 09.225, TEM-52): +
ESBL NDP Test from: Colonies (E. coli; E. coli 09.40, TEM-52): +
ESBL NDP Test from: Colonies (E. coli; E. coli 09.41, SHV-12): +
ESBL NDP Test from: Colonies (E. coli; E. coli 09.66, TEM-52): +
ESBL NDP Test from: Colonies (E. coli; E. coli 09.73, TEM-52): +
ESBL NDP Test from: Colonies (E. coli; E. coli 09.79, SHV-12): +
ESBL NDP Test from: Colonies (E. coli; E. coli 09.92, TEM-52): +
ESBL NDP Test from: Colonies (E. coli; E. coli 10.104, CTX-M-1): +
ESBL NDP Test from: Colonies (E. coli; E. coli 10.11, CTX-M-14): +
ESBL NDP Test from: Colonies (E. coli; E. coli 10.121, CTX-M-2): +
ESBL NDP Test from: Colonies (E. coli; E. coli 10.124, CTX-M-14): +
ESBL NDP Test from: Colonies (E. coli; E. coli 10.130, CTX-M-3): +
ESBL NDP Test from: Colonies (E. coli; E. coli 10.13, CTX-M-14): +
ESBL NDP Test from: Colonies (E. coli; E. coli 10.132, CTX-M-2): +
ESBL NDP Test from: Colonies (E. coli; E. coli 10.16, CTX-M-15): +
ESBL NDP Test from: Colonies (E. coli; E. coli 10.178, CTX-M-27): +
ESBL NDP Test from: Colonies (E. coli; E. coli 10.198, CTX-M-27): +
ESBL NDP Test from: Colonies (E. coli; E. coli 10.204, CTX-M-27): +
ESBL NDP Test from: Colonies (E. coli; E. coli 10.207, CTX-M-27): +
ESBL NDP Test from: Colonies (E. coli; E. coli 10.23, CTX-M-2): +
ESBL NDP Test from: Colonies (E. coli; E. coli 10.32, CTX-M-14): +
ESBL NDP Test from: Colonies (E. coli; E. coli 10.33, CTX-M-15): +
ESBL NDP Test from: Colonies (E. coli; E. coli 10.36, CTX-M-1): +
ESBL NDP Test from: Colonies (E. coli; E. coli 10.38, CTX-M-1): +
ESBL NDP Test from: Colonies (E. coli; E. coli 10.43, CTX-M-15): +
ESBL NDP Test from: Colonies (E. coli; E. coli 10.46, CTX-M-14): +
ESBL NDP Test from: Colonies (E. coli; E. coli 10.49, CTX-M-15): +
ESBL NDP Test from: Colonies (E. coli; E. coli 10.53, CTX-M-9): +
ESBL NDP Test from: Colonies (E. coli; E. coli 10.64, CTX-M-32): +
ESBL NDP Test from: Colonies (E. coli; E. coli 10.73, CTX-M-27): +
ESBL NDP Test from: Colonies (E. coli; E. coli 10.74, CTX-M-15): +
ESBL NDP Test from: Colonies (E. coli; E. coli 10.95, CTX-M-1): +
ESBL NDP Test from: Colonies (E. coli; E. coli (Belgium), ACC-1): −
ESBL NDP Test from: Colonies (E. coli; E. coli A7R5, SHV-3): +
Test (color change) (E. coli; E. coli ACC-1, n=1, first line): −
Test (color change) (E. coli; E. coli ACC-1, n=1, second line): +
ESBL NDP Test from: Colonies (E. coli; E. coli BG 1106 5698, Penicillinase): −
ESBL NDP Test from: Colonies (E. coli; E. coli BG 1106 6252, Wild-type): −
ESBL NDP Test from: Colonies (E. coli; E. coli BG 1106 6367, Wild-type): −
ESBL NDP Test from: Colonies (E. coli; E. coli BG 1106 7202, Penicillinase): −
ESBL NDP Test from: Colonies (E. coli; E. coli BG 1107 8873, Wild-type): −
ESBL NDP Test from: Colonies (E. coli; E. coli BG 1108 6157, Penicillinase): −
ESBL NDP Test from: Colonies (E. coli; E. coli C5O52, CTX-M-28): +
Test (color change) (E. coli; E. coli CMY-2, n=1): +
Test (color change) (E. coli; E. coli CTX-M-1, n=16): +
Test (color change) (E. coli; E. coli CTX-M-2, n=3): +
Test (color change) (E. coli; E. coli CTX-M-3, n=1): +
Test (color change) (E. coli; E. coli CTX-M-9, n=1): +
Test (color change) (E. coli; E. coli CTX-M-14, n=15): +
Test (color change) (E. coli; E. coli CTX-M-15, n=46): +
Test (color change) (E. coli; E. coli CTX-M-27, n=6): +
Test (color change) (E. coli; E. coli CTX-M-28, n=1): +
Test (color change) (E. coli; E. coli CTX-M-32, n=1): +
Test (color change) (E. coli; E. coli CTX-M-97, n=1): +
Test (color change) (E. coli; E. coli DHA-1, n=1): −
ESBL NDP Test from: Colonies (E. coli; E. coli Ec13 SYD, CMY-2): +
ESBL NDP Test from: Colonies (E. coli; E. coli GOU, DHA-1): −
ESBL NDP Test from: Colonies (E. coli; E. coli LOU, ACC-1): +
Test (color change) (E. coli; E. coli SHV-2a, n=3): +
Test (color change) (E. coli; E. coli SHV-3, n=1): +
Test (color change) (E. coli; E. coli SHV-12, n=1): −
Test (color change) (E. coli; E. coli SHV-12, n=6): +
Test (color change) (E. coli; E. coli TEM-1 penicillinase, n=5): −
Test (color change) (E. coli; E. coli TEM-12, n=1): −
Test (color change) (E. coli; E. coli TEM-29, n=2): −
Test (color change) (E. coli; E. coli TEM-52, n=8): +
Test (color change) (E. coli; E. coli TEM-133, n=1): −
Test (color change) (E. coli; E. coli VEB-1, n=1): +
Test (color change) (E. coli; E. coli Wild-type, no resistance, n=5): −
MICs range (K. oxytoca): 0.03 µg/mL
ESBL NDP Test from: Blood culture (E. aerogenes; E. aerogenes BN 1113 0225, Wild-type): −
ESBL NDP Test from: Blood culture (E. aerogenes; E. aerogenes E2O15, TEM-121): +
ESBL NDP Test from: Blood culture (S. marcescens; S. marcescens BG 1107 4243, Wild-type): −
ESBL NDP Test from: Blood culture (S. marcescens; S. marcescens BN 1201 0816, Wild-type): −
